In general, IC50 refers to the concentration that inhibits the measured activity by half.

The test addresses T1, Human GO (Homo sapiens, UniProt Q9UJM8).
T1 construct: purchased Novus Biologicals NBP1-72412
T1 sequence (Q9UJM8 1-370): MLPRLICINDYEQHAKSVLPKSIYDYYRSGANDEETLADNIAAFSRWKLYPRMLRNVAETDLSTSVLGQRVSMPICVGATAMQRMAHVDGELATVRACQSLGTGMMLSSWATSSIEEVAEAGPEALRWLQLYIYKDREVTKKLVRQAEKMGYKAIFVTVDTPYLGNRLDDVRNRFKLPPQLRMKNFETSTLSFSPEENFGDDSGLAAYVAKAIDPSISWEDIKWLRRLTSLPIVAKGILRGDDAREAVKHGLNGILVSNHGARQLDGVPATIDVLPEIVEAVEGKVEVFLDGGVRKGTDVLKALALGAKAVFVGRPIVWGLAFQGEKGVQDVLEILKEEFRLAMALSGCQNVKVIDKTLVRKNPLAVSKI
The test can be described thus: GO enzymatic assay (coupled fluorescence/HRP assay, glycolate substrate). Format: biochemical. The gist of the method:
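Coupled HRP/fluorescence read-out of glycolate oxidation by human GO in 50 mM potassium phosphate buffer (pH 7). Inhibitors added across a concentration range.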

Where [1] appears, read: Table 2, read-out: Range (range of IC50 values calculated from the enzymatic assays).

Like-named read-outs stand apart in the source and are kept apart here.

In the case of `O=C(O)c1[nH]nnc1Oc1cccc(OC2CC2)c1` [Compound 253, 4-(3-cyclopropoxyphenoxy)-1H-1,2,3-triazole-5-carboxylic acid 2,2,2-trifluoroacetate], under setting [1], the IC50 is below 0.1 µM.

On to `O=C(O)c1[nH]nnc1Oc1ccc(Cl)c(OC(F)(F)F)c1` [Compound 254, 4-(4-chloro-3-(trifluoromethoxy)phenoxy)-1H-1,2,3-triazole-5-carboxylic acid], for which the IC50 under setting [1] is below 0.1 µM.

For the compound `CC(=O)NCCOc1ccc(-c2ccc(Oc3nn[nH]c3C(=O)O)cc2)cc1` [Compound 255, 4-((4′-(2-acetamidoethoxy)-[1,1′-biphenyl]-4-yl)oxy)-1H-1,2,3-triazole-5-carboxylic acid], the IC50 under setting [1] was below 0.1 µM.

Regarding `CC(C)C(=O)OCOC(=O)c1[nH]nnc1OC1CCc2cc(Cl)c(Cl)cc2C1` (stereo not drawn) [Compound 256, (isobutyryloxy)methyl 4-((6,7-dichloro-1,2,3,4-tetrahydronaphthalen-2-yl)oxy)-1H-1,2,3-triazole-5-carboxylate], the IC50 under setting [1] is 0.1 to 1 µM.

For `O=C(O)c1[nH]nnc1Oc1ccc(-c2ccc3cnccc3c2)cc1` [Compound 257, 4-(4-(isoquinolin-6-yl)phenoxy)-1H-1,2,3-triazole-5-carboxylic acid], under setting [1], the IC50 was below 0.1 µM.

For `CC(C)(C)C(=O)OCOC(=O)c1[nH]nnc1OC1CCc2cc(Cl)c(Cl)cc2C1` (stereo not drawn) [Compound 258, (pivaloyloxy)methyl 4-((6,7-dichloro-1,2,3,4-tetrahydronaphthalen-2-yl)oxy)-1H-1,2,3-triazole-5-carboxylate], the half-inhibitory concentration (IC50) under setting [1] is 1 to 10 µM.

For the compound `CC(=O)NCCOc1cccc(-c2ccc(Oc3nn[nH]c3C(=O)O)cc2)c1` [Compound 259, 4-((3′-(2-acetamidoethoxy)-[1,1′-biphenyl]-4-yl)oxy)-1H-1,2,3-triazole-5-carboxylic acid], the half-inhibitory concentration (IC50) under setting [1] was below 0.1 µM.

For `O=C(O)c1[nH]nnc1OC1CCN(c2ccc3cnccc3c2)CC1` [Compound 260, 4-((1-(isoquinolin-6-yl)piperidin-4-yl)oxy)-1H-1,2,3-triazole-5-carboxylic acid 2,2,2-trifluoroacetate], the IC50 under setting [1] is 0.1 to 1 µM.

Regarding `O=C(OCOC(=O)c1[nH]nnc1OC1CCc2cc(Cl)c(Cl)cc2C1)c1ccccc1` (stereo not drawn) [Compound 261, (benzoyloxy)methyl 4-((6,7-dichloro-1,2,3,4-tetrahydronaphthalen-2-yl)oxy)-1H-1,2,3-triazole-5-carboxylate], under setting [1], the IC50 is 1 to 10 µM.

Turning to `O=C(O)c1[nH]nnc1Oc1cccc(OCC2CC2)c1` [Compound 262, 4-(3-(cyclopropylmethoxy)phenoxy)-1H-1,2,3-triazole-5-carboxylic acid 2,2,2-trifluoroacetate], the IC50 under setting [1] was below 0.1 µM.

Take `O=C(O)c1[nH]nnc1Oc1ccc(C2CCOCC2)cc1` [Compound 263, 4-(4-(tetrahydro-2H-pyran-4-yl)phenoxy)-1H-1,2,3-triazole-5-carboxylic acid 2,2,2-trifluoroacetate]: under setting [1], the IC50 was below 0.1 µM.

Consider `O=C(O)c1[nH]nnc1COc1ccc(Cl)c(Cl)c1` [Compound 264, 4-((3,4-dichlorophenoxy)methyl)-1H-1,2,3-triazole-5-carboxylic acid 2,2,2-trifluoroacetate], for which the IC50 under setting [1] was below 0.1 µM.

With `O=C(O)c1[nH]nnc1COc1ccc(-c2ccc(OC(F)(F)F)cc2)cc1` [Compound 265, 4-(((4′-(trifluoromethoxy)-[1,1′-biphenyl]-4-yl)oxy)methyl)-1H-1,2,3-triazole-5-carboxylic acid], the IC50 under setting [1] was below 0.1 µM.

`O=C(O)c1[nH]nnc1COc1ccc(-c2ccc(Cl)c(Cl)c2)cc1` [Compound 266, 4-(((3′,4′-dichloro-[1,1′-biphenyl]-4-yl)oxy)methyl)-1H-1,2,3-triazole-5-carboxylic acid 2,2,2-trifluoroacetate]: the half-inhibitory concentration (IC50) under setting [1] is below 0.1 µM.

`CCC(=O)OCOC(=O)c1[nH]nnc1OC1CCc2cc(Cl)c(Cl)cc2C1` (stereo not drawn) [Compound 267, (propionyloxy)methyl 4-((6,7-dichloro-1,2,3,4-tetrahydronaphthalen-2-yl)oxy)-1H-1,2,3-triazole-5-carboxylate]: the IC50 under setting [1] was below 0.1 µM.

For `O=C(O)c1[nH]nnc1Oc1ccc(C2CC(F)(F)C2)cc1` [Compound 268, 4-(4-(3,3-difluorocyclobutyl)phenoxy)-1H-1,2,3-triazole-5-carboxylic acid], the IC50 under setting [1] was below 0.1 µM.

As for `O=C(O)c1[nH]nnc1OCc1ccc(Cl)c(Cl)c1` [Compound 269, 4-((3,4-dichlorobenzyl)oxy)-1H-1,2,3-triazole-5-carboxylic acid], under setting [1], the IC50 was below 0.1 µM.

Turning to `O=C(O)c1[nH]nnc1OC1CCN(c2ccc(Cl)cc2)CC1` [Compound 270, 4-((1-(4-chlorophenyl)piperidin-4-yl)oxy)-1H-1,2,3-triazole-5-carboxylic acid 2,2,2-trifluoroacetate], the IC50 under setting [1] is below 0.1 µM.

Take `O=C(O)c1[nH]nnc1OC1Cc2cc(F)c(F)cc2C1` [Compound 271, 4-((5,6-difluoro-2,3-dihydro-1H-inden-2-yl)oxy)-1H-1,2,3-triazole-5-carboxylic acid]: the IC50 under setting [1] was below 0.1 µM.

Regarding `O=C(O)c1[nH]nnc1Oc1ccc(C2CCCCC2)cc1` [Compound 273, 4-(4-cyclohexylphenoxy)-1H-1,2,3-triazole-5-carboxylic acid], the IC50 was below 0.1 µM.

On to `O=C(O)c1[nH]nnc1OCc1ccc(-c2ccc(OC(F)(F)F)cc2)cc1` [Compound 274, 4-((4′-(trifluoromethoxy)-[1,1′-biphenyl]-4-yl)methoxy)-1H-1,2,3-triazole-5-carboxylic acid], for which, under setting [1], the IC50 was below 0.1 µM.

For the compound `O=C(O)c1[nH]nnc1OC1CCC(c2ccc(OC(F)(F)F)cc2)C1` (stereo not drawn) [Compound 275, 4-((3-(4-(trifluoromethoxy)phenyl)cyclopentyl)oxy)-1H-1,2,3-triazole-5-carboxylic acid], the IC50 under setting [1] was below 0.1 µM.

For `O=C(O)c1[nH]nnc1SC1CCc2cc(Cl)c(Cl)cc2C1` (stereo not drawn) [Compound 277, 4-((6,7-dichloro-1,2,3,4-tetrahydronaphthalen-2-yl)thio)-1H-1,2,3-triazole-5-carboxylic acid], under setting [1], the IC50 is below 0.1 µM.

Consider `O=C(OCOC(=O)c1[nH]nnc1Sc1ccc(-c2ccc(N3CCCCC3)cc2)cc1)c1ccccc1` [Compound 278, (benzoyloxy)methyl 4-((4′-(piperidin-1-yl)-[1,1′-biphenyl]-4-yl)thio)-1H-1,2,3-triazole-5-carboxylate], for which the IC50 under setting [1] was 1 to 10 µM.

As to `O=C(O)c1[nH]nnc1Oc1ccc(C2CCC(F)(F)CC2)cc1` [Compound 279, 4-(4-(4,4-difluorocyclohexyl)phenoxy)-1H-1,2,3-triazole-5-carboxylic acid], the IC50 under setting [1] is below 0.1 µM.

As to `O=C(O)c1[nH]nnc1OC1CCC2(CC1)CC2` [Compound 280, 4-(spiro[2.5]octan-6-yloxy)-1H-1,2,3-triazole-5-carboxylic acid 2,2,2-trifluoroacetate], the IC50 under setting [1] was below 0.1 µM.

For `CC1(C)CCCc2cc(Oc3nn[nH]c3C(=O)O)ccc21` [Compound 281, 4-((5,5-dimethyl-5,6,7,8-tetrahydronaphthalen-2-yl)oxy)-1H-1,2,3-triazole-5-carboxylic acid], the IC50 under setting [1] was 0.1 to 1 µM.

In the case of `O=C(O)c1[nH]nnc1OC1Cc2ccc(OC(F)(F)F)cc2C1` (stereo not drawn) [Compound 282, 4-((5-(trifluoromethoxy)-2,3-dihydro-1H-inden-2-yl)oxy)-1H-1,2,3-triazole-5-carboxylic acid], the IC50 under setting [1] is below 0.1 µM.

On to `O=C(O)c1[nH]nnc1OC1CCC2(CCCCC2)CC1` [Compound 283, 4-(spiro[5.5]undecan-3-yloxy)-1H-1,2,3-triazole-5-carboxylic acid], for which the IC50 under setting [1] is below 0.1 µM.

For `O=C(O)c1[nH]nnc1OC1CCC2(CCCC2)CC1` [Compound 284, 4-(spiro[4.5]decan-8-yloxy)-1H-1,2,3-triazole-5-carboxylic acid], under setting [1], the IC50 is below 0.1 µM.

Take `O=C(O)c1[nH]nnc1OC1CCN(c2cc(Cl)cc(Cl)c2)CC1` [Compound 285, 4-((1-(3,5-dichlorophenyl)piperidin-4-yl)oxy)-1H-1,2,3-triazole-5-carboxylic acid 2,2,2-trifluoroacetate]: the IC50 under setting [1] was below 0.1 µM.

Consider `O=C(O)c1[nH]nnc1OC1CCN(c2ccc(Cl)c(Cl)c2)CC1` [Compound 286, 4-((1-(3,4-dichlorophenyl)piperidin-4-yl)oxy)-1H-1,2,3-triazole-5-carboxylic acid 2,2,2-trifluoroacetate], for which the IC50 under setting [1] was below 0.1 µM.

Consider `O=C(O)c1[nH]nnc1OC1CCN(c2ccc(C(F)(F)F)cc2)CC1` [Compound 287, 4-((1-(4-(trifluoromethyl)phenyl)piperidin-4-yl)oxy)-1H-1,2,3-triazole-5-carboxylic acid 2,2,2-trifluoroacetate], for which, under setting [1], the IC50 is below 0.1 µM.

As for `O=C(O)c1[nH]nnc1Oc1cc(OCC2CC2)cc(C(F)(F)F)c1` [Compound 288, 4-(3-(cyclopropylmethoxy)-5-(trifluoromethyl)phenoxy)-1H-1,2,3-triazole-5-carboxylic acid], under setting [1], the IC50 is 0.1 to 1 µM.

`O=C(O)c1[nH]nnc1Oc1cc(Cl)cc(OCC2CC2)c1` [Compound 289, 4-(3-chloro-5-(cyclopropylmethoxy)phenoxy)-1H-1,2,3-triazole-5-carboxylic acid 2,2,2-trifluoroacetate]: under setting [1], the 50% inhibitory concentration (IC50) is below 0.1 µM.

`O=C(O)c1[nH]nnc1Oc1cccc(OCC2CCCC2)c1` [Compound 290, 4-(3-(cyclopentylmethoxy)phenoxy)-1H-1,2,3-triazole-5-carboxylic acid 2,2,2-trifluoroacetate]: under setting [1], the IC50 is below 0.1 µM.

These data come from patent publication US11384055B2 (BIOMARIN PHARMACEUTICAL INC., priority 2017, dated 2022).
